Reference: patent publication US6747032B2, “Pyrimidin-4-one compounds” (Les Laboratoires Servier, priority 2001, dated 2004)

Key:
male CD-1 mice = assay: Test for aggressiveness caused by isolation, in the mouse; format: in vivo; conditions: isolated male CD-1 mice, i.p., 30 min before test, measured over three minutes
Protocol: The animals used are male CD-1 mice. From the time of their arrival, the mice are isolated in individual cages, with free access to food and drink. After a period of one month of isolation, pairs of mice that are stable in terms of aggressiveness are selected by observing the latency period and the number and the duration of attacks when the mice are placed in the presence of one another.
The test is conducted once per week. On the day of the test, each mouse of the pair (resident and intruder) is given an intraperitoneal injection of the vehicle (control animals) or of the compound under test (treated animals) in a volume of 10 ml/kg. After 30 minutes, the intruder mouse is introduced into the cage of the resident mouse. The latency period until the first attack and the number and the duration of attacks are then measured over a period of three minutes.
A compound is considered to be specifically anti-aggressive when it reduces the number and the duration of attacks at non-sedative doses.

α2-adrenergic receptors = assay: Affinity for α2-adrenergic receptors, competition with [3H]-RX 821,002; format: binding; conditions: rat cerebral cortex membranes, 0.4 nM [3H]-RX 821,002, 60 minutes at 22° C.
Protocol: The affinity was determined by competition experiments with [^3H]-RX 821,002. The membranes are prepared from the cerebral cortex of the rat and are incubated in triplicate with 0.4 nM [^3H]-RX 821,002 and the compound being tested in a final volume of 1.0 ml, for 60 minutes at 22° C. The incubation buffer contains […] TRIS-HCl (pH 7.5), 1 mM EDTA and 100 μM GppNHp. The non-specific binding is determined using 10 μM phentolamine.
Data Analysis: At the end of the incubation, the incubation medium is filtered through WHATMAN GF/B filters impregnated with 0.1% of polyethylenimine and washed three times with 5 ml of cooled buffer. The radioactivity retained on the filters is determined by liquid scintillation counting. The binding isotherms are analysed by non-linear regression.

5-HT2c receptors = target: T1, 5-HT2c receptors (Rattus norvegicus, UniProt P08909); assay: Penile erection test in the rat (erections caused by RO 60-0175); format: in vivo; conditions: sc, male Wistar rats, s.c., compound 30 min before RO 60-0175 (1.25 mg/kg s.c.), erections counted over 30 min, read-out: inhibitory dose 50 (ID50), inhibition of penile erections caused by RO 60-0175
T1 construct: from tissue; host or cells: whole animal (male Wistar rat, in vivo)
T1 sequence (P08909 33-460): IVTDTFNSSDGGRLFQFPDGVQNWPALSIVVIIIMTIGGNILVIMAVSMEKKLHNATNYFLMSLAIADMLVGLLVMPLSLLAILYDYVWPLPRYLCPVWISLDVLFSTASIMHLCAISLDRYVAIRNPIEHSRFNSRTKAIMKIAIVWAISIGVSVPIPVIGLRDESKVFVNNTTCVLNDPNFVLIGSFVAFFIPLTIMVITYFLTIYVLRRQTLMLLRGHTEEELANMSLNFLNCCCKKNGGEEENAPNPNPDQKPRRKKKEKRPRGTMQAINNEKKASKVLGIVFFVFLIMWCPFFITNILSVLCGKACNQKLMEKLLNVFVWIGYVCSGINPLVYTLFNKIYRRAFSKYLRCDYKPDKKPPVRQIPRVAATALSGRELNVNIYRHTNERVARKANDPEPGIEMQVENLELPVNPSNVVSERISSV
Protocol: This test allows evaluation of the capacity of pharmacological agents to inhibit penile erections caused by administration of a selective 5-HT2c agonist, RO 60-0175.
Male rats of the Wistar strain weighing 120-140 g on the day of the experiment are placed separately in plexiglass observation boxes immediately after the compound under test or the vehicle has been administered. Thirty minutes later, RO 60-0175 (1.25 mg/kg, subcutaneous) is administered to the animals and the number of erections occurring during the next 30 minutes is counted.

[1] = system: male mice of the NMRI strain; assay: Marble-burying test in the mouse; format: in vivo; conditions: s.c., 30 minutes' exploration, 24 marbles
Excerpt: This test allows evaluation of the capacity of pharmacological agents to inhibit spontaneous marble-burying behaviour in the mouse, the inhibition being predictive of antidepressant and/or anti-impulsive action.
Male mice of the NMRI strain weighing from 20 to 25 g on the day of the experiment are placed individually in Macrolon boxes containing 5 cm of sawdust and covered with a perforated plexiglass plate. Twenty-four “tiger's eye” glass marbles are evenly distributed on the sawdust at the periphery of the box. At the end of 30 minutes' free exploration, the animals are removed from the box and the number of buried marbles is counted.

In the case of Cc1nc2ccccn2c(=O)c1CCN1CC2COc3ccc4ccccc4c3C2C1.O=C(O)/C=C/C(=O)O (stereo not shown) [Example 3, 3-[2-(1,3a,4,11c-Tetrahydrobenzo[5,6]chromeno[3,4-c]pyrrol-2(3H)-yl)-ethyl]-2-methyl-4H-pyrido[1,2-a]pyrimidin-4-one Fumarate], the “inhibitory dose 50 (ID50), number and duration of attacks” value (male CD-1 mice) is reported as 7 mg/kg, the pKi (α2-adrenergic receptors) is reported as 7.5 and the ED50 (5-HT2c receptors) is reported as 2.6 mg/kg. The “inhibitory dose 50 (ID50), spontaneous marble-burying behaviour” value [1] was 4.1 mg/kg.
